Laboratory results as given in ChEMBL document CHEMBL1201862, “PubChem BioAssay data set” (2004).
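Growth conditions: 96-well plates. Treatment: test compound, 48 hours, 5 concentrations. Analysis: linear interpolation between bracketing concentrations; unreached endpoints set to highest concentration. GI50 = concentration required for 50% inhibition of growth.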 Active and inactive are the calls of the source. Cut-off read from the data, not from the text of the source: active = GI50 up to about 1.1 µM and inactive = higher.

Experiments:
Test in all cases: NCI tumour cell line growth inhibition, 48 h
OVCAR-4 = tested on: OVCAR-4
PC-3 = tested on: PC-3
HCT-15 = tested on: HCT-15
A498 = tested on: A498
NCI-H23 = tested on: NCI-H23
786-0 = tested on: 786-0
BT-549 = tested on: BT-549
Hs-578T = tested on: Hs-578T
HCT-116 = tested on: HCT-116
MDA-N = tested on: MDA-N
SW-620 = tested on: SW-620
CAKI-1 = tested on: CAKI-1
SN12C = tested on: SN12C
RXF 393 = tested on: RXF 393
IGROV-1 = tested on: IGROV-1
LOX IMVI = tested on: LOX IMVI
NCI-H460 = tested on: NCI-H460
SF-295 = tested on: SF-295
HOP-92 = tested on: HOP-92
SK-MEL-5 = tested on: SK-MEL-5
SK-OV-3 = tested on: SK-OV-3
MDA-MB-231 = tested on: MDA-MB-231
HT-29 = tested on: HT-29
EKVX = tested on: EKVX
MDA-MB-435 = tested on: MDA-MB-435
UACC-62 = tested on: UACC-62
A549 = tested on: A549
OVCAR-8 = tested on: OVCAR-8
SNB-75 = tested on: SNB-75
MCF7 = tested on: MCF7
HCC 2998 = tested on: HCC 2998
RPMI-8226 = tested on: RPMI-8226
DU-145 = tested on: DU-145
K562 = tested on: K562
SF-539 = tested on: SF-539
OVCAR-3 = tested on: OVCAR-3
SNB-19 = tested on: SNB-19
OVCAR-5 = tested on: OVCAR-5
UO-31 = tested on: UO-31
TK-10 = tested on: TK-10
SK-MEL-2 = tested on: SK-MEL-2
U-251 = tested on: U-251
SF-268 = tested on: SF-268
MOLT-4 = tested on: MOLT-4
ACHN = tested on: ACHN
COLO 205 = tested on: COLO 205
SR = tested on: SR
UACC-257 = tested on: UACC-257
NCI/ADR-RES = tested on: NCI/ADR-RES
CCRF-CEM = tested on: CCRF-CEM
NCI-H226 = tested on: NCI-H226
SK-MEL-28 = tested on: SK-MEL-28
HOP-62 = tested on: HOP-62
KM12 = tested on: KM12
HL-60 = tested on: HL-60
M14 = tested on: M14
NCI-H522 = tested on: NCI-H522
Malme-3M = tested on: Malme-3M

COC(=O)Cc1c([C@@H]2Nc3ccccc3[C@H]2CC(=O)OC)[nH]c2ccccc12
GI50 (OVCAR-4): 23 µM (inactive)
GI50 (PC-3): 11.1 µM (inactive)
GI50 (HCT-15): 5.02 µM
GI50 (A498): 34.7 µM (inactive)
GI50 (NCI-H23): 27 µM (inactive)
GI50 (786-0): 58.2 µM (inactive)
GI50 (BT-549): 18.5 µM (inactive)
GI50 (Hs-578T): 41.3 µM (inactive)
GI50 (HCT-116): 38.9 µM (inactive)
GI50 (MDA-N): 28.7 µM (inactive)
GI50 (SW-620): 46.8 µM (inactive)
GI50 (CAKI-1): 47.2 µM (inactive)
GI50 (SN12C): 30.3 µM (inactive)
GI50 (RXF 393): 25.7 µM (inactive)
GI50 (IGROV-1): 9.79 µM (inactive)
GI50 (LOX IMVI): 21.6 µM (inactive)
GI50 (NCI-H460): 21.1 µM (inactive)
GI50 (SF-295): 22.8 µM (inactive)
GI50 (HOP-92): 45.8 µM (inactive)
GI50 (SK-MEL-5): 7.98 µM (inactive)
GI50 (SK-OV-3): 52.4 µM (inactive)
GI50 (MDA-MB-231): 18.5 µM (inactive)
GI50 (HT-29): 48.5 µM (inactive)
GI50 (EKVX): 43 µM (inactive)
GI50 (MDA-MB-435): 26.1 µM (inactive)
GI50 (UACC-62): 13.9 µM (inactive)
GI50 (A549): 31.7 µM (inactive)
GI50 (OVCAR-8): 33.7 µM (inactive)
GI50 (SNB-75): 36.9 µM (inactive)
GI50 (MCF7): 25.4 µM (inactive)
GI50 (HCC 2998): 45.1 µM (inactive)
GI50 (RPMI-8226): 14.9 µM (inactive)
GI50 (DU-145): 59.4 µM (inactive)
GI50 (K562): 11 µM (inactive)
GI50 (SF-539): 20.5 µM (inactive)
GI50 (OVCAR-3): 18.3 µM (inactive)
GI50 (SNB-19): 55.6 µM (inactive)
GI50 (OVCAR-5): 27.8 µM (inactive)
GI50 (UO-31): 16.6 µM (inactive)
GI50 (TK-10): 44.2 µM (inactive)
GI50 (SK-MEL-2): 17.7 µM (inactive)
GI50 (U-251): 20.4 µM (inactive)
GI50 (SF-268): 31.1 µM (inactive)
GI50 (MOLT-4): 10.9 µM (inactive)
GI50 (ACHN): 36.6 µM (inactive)
GI50 (COLO 205): 16 µM (inactive)
GI50 (SR): 8.02 µM (inactive)
GI50 (UACC-257): 24.9 µM (inactive)
GI50 (NCI/ADR-RES): 26.9 µM (inactive)
GI50 (CCRF-CEM): 20.7 µM (inactive)
GI50 (NCI-H226): 71.8 µM (inactive)
GI50 (SK-MEL-28): 28.3 µM (inactive)
GI50 (HOP-62): 26.9 µM (inactive)

CC(C)c1cccc(C(C)C)c1OS(=O)(=O)NC(=O)OC(C(F)(F)F)C(F)(F)F
GI50 (OVCAR-4): 50.1 µM (inactive)
GI50 (PC-3): 36.7 µM (inactive)
GI50 (HCT-15): 34.1 µM
GI50 (A498): 71.9 µM (inactive)
GI50 (NCI-H23): 45.7 µM (inactive)
GI50 (BT-549): 67.8 µM (inactive)
GI50 (KM12): 43.7 µM (inactive)
GI50 (Hs-578T): > 100 µM (inactive)
GI50 (HCT-116): 31.5 µM (inactive)
GI50 (MDA-N): 56.9 µM (inactive)
GI50 (SW-620): 51.6 µM (inactive)
GI50 (CAKI-1): > 100 µM (inactive)
GI50 (SN12C): 33.2 µM (inactive)
GI50 (IGROV-1): > 100 µM (inactive)
GI50 (LOX IMVI): 50 µM (inactive)
GI50 (NCI-H460): 46.7 µM (inactive)
GI50 (SF-295): 25.3 µM (inactive)
GI50 (HOP-92): 21.6 µM (inactive)
GI50 (SK-MEL-5): 53.2 µM (inactive)
GI50 (HL-60): 37.6 µM (inactive)
GI50 (SK-OV-3): 46.7 µM (inactive)
GI50 (MDA-MB-231): 36.9 µM (inactive)
GI50 (EKVX): 37.8 µM (inactive)
GI50 (MDA-MB-435): 57.1 µM (inactive)
GI50 (A549): 28.6 µM (inactive)
GI50 (OVCAR-8): 46.5 µM (inactive)
GI50 (MCF7): 32 µM (inactive)
GI50 (HCC 2998): 40.5 µM (inactive)
GI50 (M14): 19.2 µM (inactive)
GI50 (RPMI-8226): 16.4 µM (inactive)
GI50 (DU-145): 33.5 µM (inactive)
GI50 (K562): 24.5 µM (inactive)
GI50 (SF-539): 30.6 µM (inactive)
GI50 (SNB-19): 28.2 µM (inactive)
GI50 (OVCAR-5): > 100 µM (inactive)
GI50 (UO-31): 30.1 µM (inactive)
GI50 (NCI-H522): 39.5 µM (inactive)
GI50 (TK-10): > 100 µM (inactive)
GI50 (SK-MEL-2): 35.8 µM (inactive)
GI50 (U-251): 43.7 µM (inactive)
GI50 (SF-268): 95.7 µM (inactive)
GI50 (MOLT-4): 20 µM (inactive)
GI50 (ACHN): 37.1 µM (inactive)
GI50 (COLO 205): 88.3 µM (inactive)
GI50 (SR): 36 µM (inactive)
GI50 (UACC-257): 53.7 µM (inactive)
GI50 (NCI/ADR-RES): 32.7 µM (inactive)
GI50 (CCRF-CEM): 6.81 µM (inactive)
GI50 (Malme-3M): > 100 µM (inactive)
GI50 (NCI-H226): 35.8 µM (inactive)
GI50 (SK-MEL-28): > 100 µM (inactive)
GI50 (HOP-62): 34.8 µM (inactive)
